Test results from paper PMC12207370, “Macrocyclic Peptide Probes for Immunomodulatory Protein CD59: Potent Modulators of Bacterial Toxin Activity and Antibody‐Dependent Cytotoxicity” (Angewandte Chemie (International Ed. in English), 2025).
Where two headings read alike, the source gives them in different places. Bridge positions count the residues as written; N and C are the ends. Square brackets hold non-standard residues; d marks the D form. Peptide text beside a SMILES is read from it. * marks the point of attachment. X1 = CCCCCCCCCCCCCCCCCOCCOCCOCCOCCOCCOCCOCCOCCOCCOCCOCCOCCOCCC(=O)*

Assays:
[1] = tested on: antibody-sensitized human erythrocytes; assay: Enhancement of CDC lysis assay (complement dependent cytotoxicity) in antibody-sensitized erythrocytes; assay type: cell-based
Method: Figure 5 CP‐06 and optimized analogues control CD59 activity in cellular assays. a) ILY lysis assay. SK‐BR‐3 cells were treated with CP‐06 (n = 4) or CP‐06[W3A] (n = 2), then with Sytox green dye and ILY ([…]). The plate was imaged immediately with the IncuCyte S3 Live Cell Analysis System and then every hour up to 14 h. The linear phase of lysis was taken from each well, and linear regression was performed to extract individual slope values, which were then normalized to maximum lysis rate (Sytox and ILY) vs. 0% lysis (Sytox only) within each plate. […] Human erythrocytes were sensitized with 1% w/v anti‐human erythrocyte Ab with 5% v/v human serum in the presence of a serial dilution of CP‐06C18 (black bars) or CP‐06scrmb‐C18 (red bars) Percent lysis enhancement was calculated by normalization to 0% enhancement (buffer well) and plotted as the mean of three biological replicates ± SEM. […]
Enhancement of CDC lysis assay: A 50% (v/v) erythrocyte stock suspension was prepared as described above. […] The following controls were included: (1) a positive control which contained Tween-20 (Cf = 1%), (2) a negative control well that contained PBS, and (3) a vehicle only well that contained PBS without erythrocytes to subtract the absorbance of the vehicle. […]

[2] = Solubility and aggregation behaviour of hit peptides (stated in words); assay type: physicochemical
CD59 = biological target: T1, CD59 (Homo sapiens, UniProt P13987); assay: SPR (Biacore S200) binding to immobilised biotinylated CD59
T1 construct: Recombinant soluble human CD59 with an additional C-terminal cysteine residue
T1 sequence (P13987 26-102 limits assumed): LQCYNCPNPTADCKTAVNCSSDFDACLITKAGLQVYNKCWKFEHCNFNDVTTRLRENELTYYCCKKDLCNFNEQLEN
Text: To identify which of these peptides bound CD59 most tightly, we used a Biacore S200 surface plasmon resonance (SPR) platform to investigate CD59 affinity (Figure 2b), using a known protein binding partner of CD59 (rILYd4) as a benchmark. Four 13‐mer macrocyclic peptides and one 14‐mer macrocyclic peptide were identified with a dissociation constant (K D) lower than that of rILYd4. Considering their fourfold lower molecular weight, these peptides bind with up to 19‐fold greater efficiency compared to rILYd4 (Figure 2b).
Equipment: SPR analysis was performed on a Cytiva Biacore S200. All buffers were prepared using ultra-pure water from a Millipore Elix Q-Gard purification system. Solutions and buffers were filtered with a 0.22 μm filter and degassed prior to use. The assays were performed on Series S streptavidin (SA) sensor chip (Cytiva). PBS-P+ buffer 10X (0.2 M phosphate buffer with 27 mM KCl, 1.37 M NaCl and 0.5% Surfactant P20 (Tween 20)) was used for the preparation of the assay running buffer (PBS-P+ 1X).
Immobilisation of CD59-biotin: Biotinylated CD59 was immobilised on the surface of a SA chip by non-covalent capture (biotin streptavidin interaction) as per the manufacturer’s instructions. The system was initially primed with running buffer and normalised using BIAnormalizing solution (70% (w/w) glycerol) (Cytiva). Before immobilising the protein, the surface was conditioned with three consecutive one-minute injections of 1 M NaCl in 50 mM NaOH. Biotinylated CD59 (0.5 µg/mL in running buffer) was flowed over the protein (active) channel for different contact times to achieve different immobilisation levels (600–1200 RU). After each protein injection, the needle and injection loop were washed using 50% isopropanol in 1 M NaCl and 50 mM NaOH. A reference channel was prepared by similar treatment; however, running buffer alone rather than CD59-biotin in running buffer was flowed over the chip the same way.
Interaction analysis: Multicycle kinetic and affinity approach was used for the analysis of peptides interactions with CD59. Two-fold serial dilutions of each peptide were prepared in running buffer and were flowed over both the ligand and reference channel using a flow rate (30 μL/min) at 25 °C. A zero concentration was added to each analyte series and three cycles of buffer were run between analytes to restore the baseline. The obtained sensorgrams were analysed using the embedded Biacore S200 Evaluation software. The data were normalised by subtracting RU values of the reference channel and zero concentration of the analyte series. Kinetic rate constants (kon and koff) were determined by fitting the normalised data using the built-in Kinetic analysis model (non-linear regression with a 1:1 Langmuir binding model), KD values were then calculated from the two rate constants ([…]). The KD values were determined again by fitting the normalised data using the built-in Affinity analysis model (1:1 Langmuir binding model).

[3] = Ala scan of CP-06, SPR, n = 1, read-out: KD
[4] = SPR, immobilized CD59, average of three technical replicates ± SEM, read-out: KD (nM) ± SEM

CCCCCCCCCCCCCCCCCOCCOCCOCCOCCOCCOCCOCCOCCOCCOCCOCCOCCOCCC(=O)NCCCC[C@H](NC(=O)CNC(=O)[C@@H]1CSCC(=O)N[C@H](Cc2ccc(O)cc2)C(=O)N[C@@H](CO)C(=O)N[C@@H](Cc2c[nH]c3ccccc23)C(=O)N[C@@H]([C@@H](C)O)C(=O)N[C@@H](Cc2c[nH]c3ccccc23)C(=O)NCC(=O)N[C@@H](CC(N)=O)C(=O)N[C@@H](CCCNC(=N)N)C(=O)N[C@@H](CO)C(=O)N[C@@H](CO)C(=O)N[C@@H](C(C)C)C(=O)N[C@@H](CCCNC(=N)N)C(=O)NCC(=O)N1)C(=O)NCC(N)=O [CP-06C18] ({CH2CO}-[dY]SWTWGNRSSVRGCGK(X1)G-NH2; thioether N-14)
enhancement of mAb-mediated CDC (in words) ([1]; anti-RBC antibody, 5% human serum): enhanced mAb‐mediated CDC in a dose‐dependent manner | lysis in the absence of anti-RBC (in words) ([1]; no anti-RBC antibody, Figure S4): Neither peptide caused lysis above background

CC(C)[C@@H]1NC(=O)[C@H](CO)NC(=O)[C@H](CO)NC(=O)[C@H](CCCNC(=N)N)NC(=O)[C@H](CC(N)=O)NC(=O)CNC(=O)[C@H](Cc2c[nH]c3ccccc23)NC(=O)[C@H]([C@@H](C)O)NC(=O)[C@H](Cc2c[nH]c3ccccc23)NC(=O)[C@H](CO)NC(=O)[C@@H](Cc2ccc(O)cc2)NC(=O)CSC[C@@H](C(N)=O)NC(=O)CNC(=O)[C@H](CCCNC(=N)N)NC1=O [CP-06] (HELM PEPTIDE1{[O=C(C[*:3])[*:2]].[dY].S.W.T.W.G.N.R.S.S.V.R.G.C.[am]}$PEPTIDE1,PEPTIDE1,1:R3-15:R3$$$V2.0)
solubility (in words) [2]: good solubility | koff (CD59; SPR, immobilized CD59, read-out: Koff (dissociation rate constant)): 0.0204 s⁻¹ | kon (CD59; SPR, immobilized CD59, read-out: Kon (association rate constant)): 1.86e+06 M⁻¹ s⁻¹

CC(C)[C@@H]1NC(=O)[C@H](CO)NC(=O)[C@H](CO)NC(=O)[C@H](CCCNC(=N)N)NC(=O)[C@H](CC(N)=O)NC(=O)[C@H](C)NC(=O)[C@H](Cc2c[nH]c3ccccc23)NC(=O)[C@H]([C@@H](C)O)NC(=O)[C@H](Cc2c[nH]c3ccccc23)NC(=O)[C@H](CO)NC(=O)[C@@H](Cc2ccc(O)cc2)NC(=O)CSC[C@@H](C(N)=O)NC(=O)CNC(=O)[C@H](CCCNC(=N)N)NC1=O [CP-06-G6A] (HELM PEPTIDE1{[O=C(C[*:3])[*:2]].[dY].S.W.T.W.A.N.R.S.S.V.R.G.C.[am]}$PEPTIDE1,PEPTIDE1,1:R3-15:R3$$$V2.0)
Kd (CD59; [3]): 235 nM

CC(C)[C@@H]1NC(=O)[C@H](CO)NC(=O)[C@H](CO)NC(=O)[C@H](CCCNC(=N)N)NC(=O)[C@H](CC(N)=O)NC(=O)CNC(=O)[C@H](C)NC(=O)[C@H]([C@@H](C)O)NC(=O)[C@H](Cc2c[nH]c3ccccc23)NC(=O)[C@H](CO)NC(=O)[C@@H](Cc2ccc(O)cc2)NC(=O)CSC[C@@H](C(N)=O)NC(=O)CNC(=O)[C@H](CCCNC(=N)N)NC1=O [CP-06-W5A] (HELM PEPTIDE1{[O=C(C[*:3])[*:2]].[dY].S.W.T.A.G.N.R.S.S.V.R.G.C.[am]}$PEPTIDE1,PEPTIDE1,1:R3-15:R3$$$V2.0)
Kd (CD59; [3]): 207 nM

CC[C@H](C)[C@@H]1NC(=O)[C@H](CCC(N)=O)NC(=O)[C@H](CCCNC(=N)N)NC(=O)[C@H](CC(N)=O)NC(=O)CNC(=O)[C@H](Cc2c[nH]c3ccccc23)NC(=O)[C@H](C)NC(=O)[C@H](CO)NC(=O)[C@@H](Cc2ccc(O)cc2)NC(=O)CSC[C@@H](C(N)=O)NC(=O)[C@H](Cc2ccc(O)cc2)NC(=O)[C@H](Cc2ccc(O)cc2)NC(=O)[C@H](CCC(N)=O)NC1=O [CP-03] (HELM PEPTIDE1{[O=C(C[*:3])[*:2]].[dY].S.A.W.G.N.R.Q.I.Q.Y.Y.C.[am]}$PEPTIDE1,PEPTIDE1,1:R3-14:R3$$$V2.0)
Kd (CD59; [4]): 23.4 ± 0.7 nM

CC(C)[C@@H]1NC(=O)[C@H](Cc2ccccc2)NC(=O)[C@@H](Cc2ccc(O)cc2)NC(=O)CSC[C@@H](C(N)=O)NC(=O)CNC(=O)[C@H](CCCNC(=N)N)NC(=O)[C@H]([C@@H](C)O)NC(=O)[C@H](Cc2c[nH]cn2)NC(=O)[C@H](CC(=O)O)NC(=O)[C@H](CCCNC(=N)N)NC(=O)[C@H](CC(N)=O)NC(=O)CNC(=O)[C@H]([C@@H](C)O)NC1=O [CP-02] (HELM PEPTIDE1{[O=C(C[*:3])[*:2]].[dY].F.V.T.G.N.R.D.H.T.R.G.C.[am]}$PEPTIDE1,PEPTIDE1,1:R3-14:R3$$$V2.0)
Kd (CD59; [4]): 15.3 ± 0.2 nM

CC(C)[C@@H]1NC(=O)[C@H](CO)NC(=O)[C@H](CO)NC(=O)[C@H](CCCNC(=N)N)NC(=O)[C@H](CC(N)=O)NC(=O)CNC(=O)[C@H](Cc2c[nH]c3ccccc23)NC(=O)[C@H]([C@@H](C)O)NC(=O)[C@H](Cc2c[nH]c3ccccc23)NC(=O)[C@H](CO)NC(=O)[C@@H](Cc2ccc(O)cc2)NC(=O)CSC[C@@H](C(N)=O)NC(=O)CNC(=O)[C@H](C)NC1=O [CP-06-R12A] (HELM PEPTIDE1{[O=C(C[*:3])[*:2]].[dY].S.W.T.W.G.N.R.S.S.V.A.G.C.[am]}$PEPTIDE1,PEPTIDE1,1:R3-15:R3$$$V2.0)
Kd (CD59; [3]): 97 nM
